Assay results as given in patent publication US11661581B2, “Use of CDK inhibitors to enhance growth and self-renewal of progenitor cells” (University of Massachusetts, priority 2017, dated 2023).
“Also recorded” adds a separate entry of the source.

How the values were obtained:
[1] = test system: mouse bone marrow CFU-e progenitors; assay: CFU-e colony formation in semi-solid medium from mouse bone marrow cultures; format: cell-based; conditions: for increase in absolute CFU-e numbers relative to control cultures: day 5 of culture
Description: (17B) Mouse bone marrow erythroid progenitors, treated as described in A, but plated on day 5 of the culture in semi-solid medium, CFU-e colonies scored 72 hours later.

[2] = test system: mouse bone marrow erythroid progenitors; assay: Mouse adult bone marrow erythroid self-renewal culture, amplification of cell number; format: cell-based; conditions: for growth of mouse bone marrow erythroid progenitors (in words): drug at five times its respective IC50, two independent experiments
Description: (§1) Adult bone marrow mononuclear cells (StemCell Technologies) (A), mouse fetal liver (B) and mouse adult bone marrow (C-D), were cultured in the presence of Dex, Epo, SCF and IGF-1. Dex slows down and delays the transition from self-renewal to differentiation of early CFU-e progenitors, leading to their numerical amplification.
The doses chosen for all these inhibitors were approximately 5 times the IC50 for each drug.

[3] = test system: human bone-marrow CFU-e progenitors; assay: CFU-e colony formation in semi-solid medium from human bone marrow cultures; conditions: cells taken on day 11 of culture
Description: (17A) Human bone-marrow erythroid progenitors were amplified in cultures as in FIG. 1A. On day 11 of culture, cells were plated in semi-solid methylcellulose medium under differentiation conditions (in the presence of Epo and in the absence of Dex or SCF). CFU-e colonies were scored at 72 hours using diaminobenzidine staining to identify hemoglobinized cells. The absolute number of CFU-e progenitors obtained from the same initial starting number in each culture is shown. All statistically significant differences are noted (two-tailed t test, unequal variance).

[4] = test system: human bone marrow self-renewing cultures; assay: Flow cytometry of human bone marrow self-renewing cultures; format: cell-based; conditions: day 10 of culture
Text: (18B) Flow cytometric analysis of human bone marrow self-renewing cultures, on day 10 of culture.

wild-type CFU-e = assay: Dex-dependent CFUe self-renewal (expansion) culture of wild-type fetal liver cells; format: cell-based, mouse
Description: (§2) To isolate Ter119-negative cells, fresh fetal liver cells were stained with biotin-conjugated anti-Ter119 (BD Biosciences 553672) at 1:100, followed by EasySep magnetic separation (StemCell Technologies). Cells were grown in Stem-Pro-34 serum free medium supplemented with nutrient supplement (Invitrogen), 1 μM dexamethasone (Sigma), 100 ng/ml SCF (PeproTech), 40 ng/ml IGF1 (PeproTech), 2 U/ml Epo, 100 U/ml penicillin/streptomycin (Invitrogen) and 2 mM L-glutamine (Invitrogen). Cells were maintained at 2×10^6 cells/ml, and supplemented daily with fresh medium and growth factors. To test the effect of roscovitine on p57^KIP2−/− fetal liver cells in expansion culture, cells were grown and maintained as described above with the additional supplemented daily of 0.5 μM roscovitine (EMD Millipore 557360). To switch to differentiation medium, after being maintained in expansion medium for 4 to 5 days, Ter119-negative cells were isolated again using EasySep magnetic beads (StemCell Technologies). Cells were then transferred to IMDM (L-glutamine, 25 mM HEPES) (Gibco), 20% fetal calf serum (Gibco, HyClone), 100 U/ml penicillin/streptomycin (Invitrogen), […] β-mercapthoethanol (Sigma) and 2 U/ml Epo.
In three independent experiments, wild-type cells growing in roscovitine were amplified an average of 1.92±0.43 fold more than wild-type cells without treatment.

[5] = test system: human adult bone marrow mononuclear cells (erythroid progenitors); assay: Human bone marrow erythroid self-renewal culture, amplification of cell number; format: cell-based; conditions: peak on day 16; pooled from two independent experiments; roscovitine concentration not stated (1, 5 or 10 μM)
Description: as §1
(§3) We cultured hematopoietic tissue cells from either mouse adult bone marrow, mouse fetal liver (mid-gestation, embryonic day 13.5), or human adult bone marrow (StemCell Technologies, Vancouver, Canada), under conditions that facilitate self-renewal of colony-forming-unit-erythroid (CFU-e), in which the following are added to the culture medium: erythropoietin (Epo, 2 Units/ml), Stem Cell Factor (SCF, 100 ng/ml), Insulin-like Growth Factor 1 (IGF1, 40 ng/ml) and dexamethasone (Dex, 1 μM). Control cultures contained no other specialized additives; parallel cultures had, in addition, the CDK inhibitor roscovitine (1, 5 or 10 μM) (Pippin et al., J Clin Invest 100, 2512-2520 (1997); Meijer et al., European Journal of Biochemistry 243, 527-536 (1997)). […]

[6] = test system: mouse fetal liver erythroid cells; assay: Mouse fetal liver erythroid self-renewal culture (Example 2), amplification of cell number; format: cell-based; conditions: Dex, Epo, SCF, IGF-1
Description: as §1, §3

[7] = test system: p57KIP2-deficient fetal liver CFUe; assay: Dex-dependent CFUe self-renewal (expansion) culture of p57KIP2-deficient fetal liver cells; format: cell-based, mouse; conditions: self-renewal medium Epo+Dex; roscovitine 0.5 μM
Description: as §2
We also investigated whether CDK inhibition could underlie the essential role that p57^KIP2 plays in maintaining the viability of self-renewing CFUe.

p57KIP2-/- CFUe = assay: CFUe colony potential of p57KIP2-/- cells from Dex self-renewal cultures; conditions: day 11 of culture, 10^5 cells per dish, colonies scored 72 hours after plating
Description: (12B) Analysis of CFUe potential in Dex-dependent self-renewal cultures of p57^KIP2−/− cells treated with roscovitine (See FIG. 5I). On day 11 of culture, cells amplified in the presence or absence of roscovitine were plated at 10^5 cells per dish in Epo-containing semi-solid medium. The number of CFUe colonies formed per dish was scored 72 hours following plating.

[8] = test system: mouse bone marrow self-renewing cultures; assay: Flow cytometry and BrdU cell cycle analysis of mouse bone marrow self-renewing cultures; format: cell-based
Description: (18A) Flow cytometric analysis of mouse bone marrow self-renewing cultures, on day 6 of culture. […] The overall viability of cells in roscovitine-treated cultures was increased (not shown). Bottom panels: corresponding cell cycle analysis of cells in each culture. Cells were pulsed with BrdU at 33 μM for 25 min before analysis.
We examined cells in the self-renewing cultures using flow-cytometry. Cell surface markers CD71 and Ter119 denote the differentiation stage of erythroid progenitors and precursors in mouse hematopoietic tissue^81,41. […] By contrast, control cultures contained a substantial fraction (35%) of Ter119+ cells.

## NS(=O)(=O)c1ccc(N/N=C2\C(=O)Nc3ccc(Br)cc32)cc1 [SC-221409]
[1]; 0.5 μM
  absolute number of CFU-e progenitors by colony formation assay versus control: significant increase
[2]; 0.5 μM
  amplification of erythroid cell number versus control cultures: significant increase
[2]
  growth of mouse bone marrow erythroid progenitors (in words): improved growth

## CC(=O)c1c(C)c2cnc(Nc3ccc(N4CCNCC4)cn3)nc2n(C2CCCC2)c1=O [PD0332991]
[1]; 0.1 μM
  absolute number of CFU-e progenitors by colony formation assay versus control: either no significant effect or an inhibitory effect
[2]; 0.1 μM
  amplification of erythroid cell number versus control cultures: either no significant effect or an inhibitory effect
[2]
  growth of mouse bone marrow erythroid progenitors (in words): growth inhibition

## CC[C@H](CO)Nc1nc(NCc2ccccc2)c2ncn(C(C)C)c2n1 [roscovitine]
[3]; 1 μM
  increase in absolute number of CFU-e progenitors over control cultures: 3.9 fold
[3]; 5 μM
  increase in absolute number of CFU-e progenitors relative to control: 4.5 fold
[4]
  cells expressing glycophorin A (in words): fewer cells are glycophorin A positive
[4]; listed as Roscovitine
  cells expressing glycophorin A (in words): lower number
wild-type CFU-e; Dex cultures
  amplification of wild-type CFU-e (in words): enhanced the amplification; also recorded: also enhanced
wild-type CFU-e; average of three independent experiments
  amplification of wild-type cells relative to wild-type cells without treatment: 1.92±0.43 fold
wild-type CFU-e; period of 7-9 days
  progenitors from wild-type cells relative to absence of drug: 2 fold
wild-type CFU-e; roscovitine 0.5 μM
  normal expansion of CFUe cultures derived from wild-type littermates: little effect
[5]
  peak amplification of cell number: 9 fold
[1]; 1 μM
  increase in absolute CFU-e numbers relative to control cultures: 62%
[1]; 5 μM
  increase in absolute CFU-e numbers relative to control cultures: 40%
[6]
  amplification of erythroid cell number in mouse fetal liver cultures (in words): increased amplification; also recorded: significantly higher cell numbers
[7]
  Dex-dependent self-renewal and expansion of p57KIP2-deficient CFUe: rescued self-renewal; also recorded: rescue the self-renewal; also recorded: successfully rescued
p57KIP2-/- CFUe
  CFUe colony forming potential of treated p57KIP2-/- cells versus untreated cells: retained the same potential; also recorded: preserved CFUe colony potential
[8]; BrdU 33 μM pulse for 25 min
  number of S phase cells (in words): fewer S phase cells
  speed of S phase, rate of BrdU incorporation (BrdU MFI in S phase gate): substantially slower
[8]; BrdU 33 μM pulse for 25 min, listed as Roscovitine
  speed of S phase, rate of BrdU incorporation (BrdU MFI in S phase gate): slower S phase
[8]; day 6 of culture
  terminally-differentiating Ter119+ erythroblasts compared with control (in words): relative absence
[8]; day 6 of culture, data not shown
  overall viability of cells in culture: increased
[8]; mouse bone marrow cultures, roscovitine-treated
  cells in the culture expressing Ter119: 6%
[2]
  growth of mouse bone marrow erythroid progenitors (in words): improved growth
[2]; roscovitine 1, 5 or 10 μM
  cell numbers in mouse adult bone marrow cultures (in words): significantly higher cell numbers
